This note sets out measurements from PubChem BioAssay (NCI).

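All cell lines were grown in 96-well plates and treated with compound for 48 hours. Definition used: TGI = concentration required for complete inhibition of growth.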

For one assay, the system named is SK-MEL-2 melanoma. The experiment in a line: NCI tumour cell line growth inhibition, 48 h.
With `COc1ccc(C(OCC2OC(n3cc(C)c(=O)[nH]c3=O)CC2n2cc(Cn3cc(I)c(=O)[nH]c3=O)nn2)(c2ccccc2)c2ccccc2)cc1` (centres undefined), the TGI was above 100 µM.
Same read-out and setting: the figure for `CC(=O)NNc1nc(C)c(C(=O)NNC(=O)C(=O)Nc2ccc(Cl)cc2)s1` is above 100 µM; for `COc1ccc2c3c1C(=O)CCCC3CO2` (centres undefined) it is above 100 µM.

The next assay concerns DMS 114 small cell lung. The experiment in a line: NCI tumour cell line growth inhibition, 48 h.
In turn, `COc1ccc2c3c1C(=O)CCCC3CO2` (centres undefined) yielded a TGI above 100 µM.

The test system of the next assay is HOP-92 NSCLC. The experiment in a line: NCI tumour cell line growth inhibition, 48 h.
Consider `O=C1/C(=C/c2ccc(O)cc2)CC/C1=C\c1ccc(O)cc1`, for which the TGI is above 100 µM.
Still for that read-out and setting: the figure for `COc1ccc(C(OCC2OC(n3cc(C)c(=O)[nH]c3=O)CC2n2cc(Cn3cc(I)c(=O)[nH]c3=O)nn2)(c2ccccc2)c2ccccc2)cc1` (centres undefined) is above 100 µM.
Still for that read-out and setting: the figure for `CC(=O)NNc1nc(C)c(C(=O)NNC(=O)C(=O)Nc2ccc(Cl)cc2)s1` is above 100 µM; for `COc1ccc2c3c1C(=O)CCCC3CO2` (centres undefined) it is above 100 µM.

The subject of the next assay is SK-MEL-5 melanoma. The experiment in a line: NCI tumour cell line growth inhibition, 48 h.
For the compound `O=C1/C(=C/c2ccc(O)cc2)CC/C1=C\c1ccc(O)cc1`, the TGI was above 100 µM.
For `COc1ccc(C(OCC2OC(n3cc(C)c(=O)[nH]c3=O)CC2n2cc(Cn3cc(I)c(=O)[nH]c3=O)nn2)(c2ccccc2)c2ccccc2)cc1` (centres undefined), the TGI was above 100 µM.
Still for that read-out and setting: with `CC(=O)NNc1nc(C)c(C(=O)NNC(=O)C(=O)Nc2ccc(Cl)cc2)s1` the figure was above 100 µM; with `COc1ccc2c3c1C(=O)CCCC3CO2` (centres undefined), above 100 µM.

In another assay the test system is IGROV1 ovarian. The experiment in a line: NCI tumour cell line growth inhibition, 48 h.
Turning to `O=C1/C(=C/c2ccc(O)cc2)CC/C1=C\c1ccc(O)cc1`, the TGI was above 100 µM.
The same measure, in the same setting: with `COc1ccc(C(OCC2OC(n3cc(C)c(=O)[nH]c3=O)CC2n2cc(Cn3cc(I)c(=O)[nH]c3=O)nn2)(c2ccccc2)c2ccccc2)cc1` (centres undefined) the figure was above 100 µM.
The same measure, in the same setting: with `CC(=O)NNc1nc(C)c(C(=O)NNC(=O)C(=O)Nc2ccc(Cl)cc2)s1` the figure was above 100 µM; with `COc1ccc2c3c1C(=O)CCCC3CO2` (centres undefined), above 100 µM.

For another assay, the system named is HCC-2998 colon. The experiment in a line: NCI tumour cell line growth inhibition, 48 h.
Turning to `O=C1/C(=C/c2ccc(O)cc2)CC/C1=C\c1ccc(O)cc1`, the TGI was above 100 µM.
The same measure, in the same setting: the figure for `COc1ccc(C(OCC2OC(n3cc(C)c(=O)[nH]c3=O)CC2n2cc(Cn3cc(I)c(=O)[nH]c3=O)nn2)(c2ccccc2)c2ccccc2)cc1` (centres undefined) is above 100 µM; for `CC(=O)NNc1nc(C)c(C(=O)NNC(=O)C(=O)Nc2ccc(Cl)cc2)s1` it is above 100 µM.
Same read-out and setting: with `COc1ccc2c3c1C(=O)CCCC3CO2` (centres undefined) the figure was above 100 µM.

The subject of the next assay is OVCAR-8 ovarian. The experiment in a line: NCI tumour cell line growth inhibition, 48 h.
`O=C1/C(=C/c2ccc(O)cc2)CC/C1=C\c1ccc(O)cc1` displayed a TGI above 100 µM.
Still for that read-out and setting: with `COc1ccc(C(OCC2OC(n3cc(C)c(=O)[nH]c3=O)CC2n2cc(Cn3cc(I)c(=O)[nH]c3=O)nn2)(c2ccccc2)c2ccccc2)cc1` (centres undefined) the figure was above 100 µM.
Same read-out and setting: the figure for `CC(=O)NNc1nc(C)c(C(=O)NNC(=O)C(=O)Nc2ccc(Cl)cc2)s1` is above 100 µM; for `COc1ccc2c3c1C(=O)CCCC3CO2` (centres undefined) it is above 100 µM.

For a further assay, the system named is U251 CNS. The experiment in a line: NCI tumour cell line growth inhibition, 48 h.
Compound `O=C1/C(=C/c2ccc(O)cc2)CC/C1=C\c1ccc(O)cc1` gave a TGI above 100 µM.
The same measure, in the same setting: the figure for `COc1ccc(C(OCC2OC(n3cc(C)c(=O)[nH]c3=O)CC2n2cc(Cn3cc(I)c(=O)[nH]c3=O)nn2)(c2ccccc2)c2ccccc2)cc1` (centres undefined) is above 100 µM.
`CC(=O)NNc1nc(C)c(C(=O)NNC(=O)C(=O)Nc2ccc(Cl)cc2)s1` showed a TGI above 100 µM.
With `COc1ccc2c3c1C(=O)CCCC3CO2` (centres undefined), the TGI was above 100 µM.

The next assay relates to CAKI-1 renal. The experiment in a line: NCI tumour cell line growth inhibition, 48 h.
Regarding `O=C1/C(=C/c2ccc(O)cc2)CC/C1=C\c1ccc(O)cc1`, the TGI was above 100 µM.
Same read-out and setting: with `COc1ccc(C(OCC2OC(n3cc(C)c(=O)[nH]c3=O)CC2n2cc(Cn3cc(I)c(=O)[nH]c3=O)nn2)(c2ccccc2)c2ccccc2)cc1` (centres undefined) the figure was above 100 µM.

In the next assay the test system is MOLT-4 leukemia. The experiment in a line: NCI tumour cell line growth inhibition, 48 h.
`O=C1/C(=C/c2ccc(O)cc2)CC/C1=C\c1ccc(O)cc1` came in with a TGI above 52.8 µM.
In turn, `COc1ccc(C(OCC2OC(n3cc(C)c(=O)[nH]c3=O)CC2n2cc(Cn3cc(I)c(=O)[nH]c3=O)nn2)(c2ccccc2)c2ccccc2)cc1` (centres undefined) registered a TGI above 100 µM.
Same read-out and setting: with `CC(=O)NNc1nc(C)c(C(=O)NNC(=O)C(=O)Nc2ccc(Cl)cc2)s1` the figure was above 100 µM.
Same read-out and setting: the figure for `COc1ccc2c3c1C(=O)CCCC3CO2` (centres undefined) is above 100 µM.

Another assay deals with MDA-MB-231 breast. The experiment in a line: NCI tumour cell line growth inhibition, 48 h.
`O=C1/C(=C/c2ccc(O)cc2)CC/C1=C\c1ccc(O)cc1` yielded a TGI above 100 µM.
Compound `COc1ccc(C(OCC2OC(n3cc(C)c(=O)[nH]c3=O)CC2n2cc(Cn3cc(I)c(=O)[nH]c3=O)nn2)(c2ccccc2)c2ccccc2)cc1` (centres undefined) gave a TGI above 100 µM.

In a further assay the test system is KM20L2 colon. The experiment in a line: NCI tumour cell line growth inhibition, 48 h.
In the case of `CC(=O)NNc1nc(C)c(C(=O)NNC(=O)C(=O)Nc2ccc(Cl)cc2)s1`, the TGI is above 100 µM.

Another assay deals with OVCAR-5 ovarian. The experiment in a line: NCI tumour cell line growth inhibition, 48 h.
`O=C1/C(=C/c2ccc(O)cc2)CC/C1=C\c1ccc(O)cc1` gave a TGI above 100 µM.
Same read-out and setting: with `COc1ccc(C(OCC2OC(n3cc(C)c(=O)[nH]c3=O)CC2n2cc(Cn3cc(I)c(=O)[nH]c3=O)nn2)(c2ccccc2)c2ccccc2)cc1` (centres undefined) the figure was above 100 µM; with `CC(=O)NNc1nc(C)c(C(=O)NNC(=O)C(=O)Nc2ccc(Cl)cc2)s1`, above 100 µM.
On the same count and under the same terms, the figure for `COc1ccc2c3c1C(=O)CCCC3CO2` (centres undefined) is above 100 µM.

In a further assay the test system is OVCAR-3 ovarian. The experiment in a line: NCI tumour cell line growth inhibition, 48 h.
`O=C1/C(=C/c2ccc(O)cc2)CC/C1=C\c1ccc(O)cc1` yielded a TGI above 100 µM.
Still for that read-out and setting: the figure for `COc1ccc(C(OCC2OC(n3cc(C)c(=O)[nH]c3=O)CC2n2cc(Cn3cc(I)c(=O)[nH]c3=O)nn2)(c2ccccc2)c2ccccc2)cc1` (centres undefined) is above 100 µM; for `CC(=O)NNc1nc(C)c(C(=O)NNC(=O)C(=O)Nc2ccc(Cl)cc2)s1` it is above 100 µM.
Turning to `COc1ccc2c3c1C(=O)CCCC3CO2` (centres undefined), the TGI was above 100 µM.

Another assay concerns HT29 colon. The experiment in a line: NCI tumour cell line growth inhibition, 48 h.
For `O=C1/C(=C/c2ccc(O)cc2)CC/C1=C\c1ccc(O)cc1`, the TGI is above 100 µM.
For the compound `COc1ccc(C(OCC2OC(n3cc(C)c(=O)[nH]c3=O)CC2n2cc(Cn3cc(I)c(=O)[nH]c3=O)nn2)(c2ccccc2)c2ccccc2)cc1` (centres undefined), the TGI is above 100 µM.
In the case of `CC(=O)NNc1nc(C)c(C(=O)NNC(=O)C(=O)Nc2ccc(Cl)cc2)s1`, the TGI was above 100 µM.
Same read-out and setting: the figure for `COc1ccc2c3c1C(=O)CCCC3CO2` (centres undefined) is above 100 µM.

The next assay relates to A549 NSCLC. The experiment in a line: NCI tumour cell line growth inhibition, 48 h.
Compound `O=C1/C(=C/c2ccc(O)cc2)CC/C1=C\c1ccc(O)cc1` had a TGI above 100 µM.
Same read-out and setting: with `COc1ccc(C(OCC2OC(n3cc(C)c(=O)[nH]c3=O)CC2n2cc(Cn3cc(I)c(=O)[nH]c3=O)nn2)(c2ccccc2)c2ccccc2)cc1` (centres undefined) the figure was above 100 µM.
Same read-out and setting: with `CC(=O)NNc1nc(C)c(C(=O)NNC(=O)C(=O)Nc2ccc(Cl)cc2)s1` the figure was above 100 µM.
The compound `COc1ccc2c3c1C(=O)CCCC3CO2` (centres undefined) showed a TGI above 100 µM.

In another assay the test system is SF-268 CNS. The experiment in a line: NCI tumour cell line growth inhibition, 48 h.
In turn, `O=C1/C(=C/c2ccc(O)cc2)CC/C1=C\c1ccc(O)cc1` displayed a TGI above 100 µM.
